This is an account of results in ChEMBL document CHEMBL1201862, “PubChem BioAssay data set” (2004).

Among the test systems are DMS-114; SNB-78; DMS-273; M19-MEL; DLD-1; XF498; HOP-18; LXFL 529; RXF 631.
Common to all, as to experiment: DTP human tumour cell line panel, 48 h

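Interpolation was linear, between the two tested concentrations surrounding the appropriate level; five concentrations were tested over 48 hours in 96-well plates. Abbreviation: GI50, concentration required for 50% inhibition of growth.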 Active and inactive are the calls of the source. Cut-off read from the data, not from the text of the source: active = GI50 up to about 1.1 µM and inactive = higher.

One may read the GI50 as the concentration at which growth is held to half of that of the control. For `C=CCCCC(C#N)(c1ccccc1)N1CCCC1` (stereo not drawn), the GI50 with DMS-114, with SNB-78, with DMS-273 and in the assay with M19-MEL was > 100 µM (inactive) throughout.
As for `Cc1cccc(C2=C/C(=C(\SS/C(C(=O)c3ccc(OCC(=O)O)c(Cl)c3Cl)=C3\C=C(c4cccc(C)c4)SS3)C(=O)c3ccc(OCC(=O)O)c(Cl)c3Cl)SS2)c1`, the GI50 in the assay with DLD-1 was 27.4 µM (inactive); with DMS-114 it was 5.42 µM (inactive); with SNB-78 it was 15.6 µM (inactive); in the assay with XF498, 7.98 µM (inactive); with DMS-273, 31.3 µM (inactive); in the assay on M19-MEL it was 19.1 µM (inactive). For the same molecule, the GI50 with HOP-18 was 12.8 µM (inactive).
As to `N#CC(C#N)=C1NC(=O)CC(=O)N1`, the GI50 in the assay on DLD-1, with DMS-114, in the assay on LXFL 529, in the assay with SNB-78, in the assay on XF498 and in the assay on DMS-273 was > 100 µM (inactive) throughout. Besides, the GI50 in the assay with M19-MEL was > 100 µM (inactive).
On to `Cn1c(=O)c2c3ccccc3c(C(=O)c3ccccc3)n2c2ccccc21`, for which the GI50 is 8.24 µM (inactive) in the assay with DLD-1; 3.67 µM (inactive) in the assay on DMS-114; > 24.5 µM (inactive) with LXFL 529; 63.2 µM (inactive) in the assay with SNB-78; > 50.9 µM (inactive) with XF498; 3.27 µM (inactive) in the assay on DMS-273. In addition, the GI50 in the assay with M19-MEL is 3.68 µM (inactive); in the assay with HOP-18, 18.7 µM (inactive).
`CSC(=N)N1N=C2c3ccccc3CC[C@@H]2[C@@H]1c1ccccc1`: the GI50 in the assay with DLD-1 was 12.9 µM (inactive); in the assay on DMS-114 it was 13.3 µM (inactive); with LXFL 529, 11.5 µM (inactive); with XF498, 16.7 µM (inactive); in the assay on DMS-273, 15 µM (inactive); with M19-MEL, 15.9 µM (inactive). In the assay with HOP-18, the GI50 is 18.5 µM (inactive).
For the molecule `Oc1cccc2c1NC1=C(CCC/C1=C\c1ccccc1)C2`, the GI50 in the assay with DMS-114 is 67.8 µM (inactive); in the assay with LXFL 529, 89.5 µM (inactive); in the assay on XF498 it was 57.1 µM (inactive); in the assay with DMS-273, 66.7 µM (inactive); in the assay on M19-MEL, 55.8 µM (inactive).
In the case of `CN1CCN(CCn2c3c4ccccc4ccc3c3oc(=O)c4ccccc4c32)CC1`, the GI50 in the assay on DLD-1 is 2.28 µM (inactive); in the assay with DMS-114, 1.95 µM (inactive); in the assay with LXFL 529 it was 4.06 µM (inactive); in the assay on SNB-78, 11.4 µM (inactive); with RXF 631 it was 5.19 µM (inactive); in the assay on M19-MEL, 10.8 µM (inactive). In addition, the GI50 with HOP-18 is 12.6 µM (inactive).
For the molecule `C[C@@H](CO)OCOCc1ccccc1`, the GI50 in the assay on DLD-1, in the assay on DMS-114, with LXFL 529, with SNB-78, in the assay on XF498 and with DMS-273 was > 100 µM (inactive) each time. For the same molecule, in the assay with M19-MEL, the GI50 was > 100 µM (inactive).
As to `NNC(=O)N/N=C1\CNC(=O)C(=O)C1c1nc2ccccc2s1` (stereo not drawn), the GI50 with DLD-1, in the assay with DMS-114, with LXFL 529, with SNB-78, with XF498 and in the assay with DMS-273 was > 100 µM (inactive) throughout. The GI50 with M19-MEL is > 100 µM (inactive).
As for `Cc1cc(O)nc(CNC(=O)c2cccc(C(=O)NCc3cc(O)nc(C)n3)c2)n1`, the GI50 with DLD-1, in the assay on DMS-114, in the assay on LXFL 529, in the assay with SNB-78, with DMS-273 and in the assay on M19-MEL was > 100 µM (inactive) throughout. In the assay on HOP-18, the GI50 is 68.5 µM (inactive).
Take `Cc1cccc(C)c1NC(=O)CCCC(=O)C(C#N)c1ccc(Cl)cc1` (stereo not drawn): the GI50 with DLD-1, in the assay on DMS-114, in the assay with LXFL 529, in the assay on SNB-78, in the assay with DMS-273 and in the assay with M19-MEL was > 100 µM (inactive) each time. Moreover, the GI50 in the assay on HOP-18 was > 100 µM (inactive).
Regarding `Cc1ccc(S(=O)(=O)OC(C=O)C(O)C(O)COC(c2ccccc2)(c2ccccc2)c2ccccc2)cc1` (stereo not drawn), the GI50 with DMS-114 is 17.6 µM (inactive); in the assay on LXFL 529, 12.8 µM (inactive); in the assay on XF498, 15.8 µM (inactive); with DMS-273, 21.9 µM (inactive); in the assay on RXF 631, 0.46 µM (active); with M19-MEL it was 13.1 µM (inactive).
As for `C[Si]12OCCCN(CCO1)CCO2`, the GI50 in the assay with DLD-1, in the assay on DMS-114, in the assay with LXFL 529, with SNB-78, with DMS-273 and in the assay on M19-MEL was > 100 µM (inactive) in each case.
As to `N#Cc1ccc(Nc2cnc3ccc(N)cc3n2)cc1`, the GI50 with DLD-1, in the assay on DMS-114, in the assay on LXFL 529, with SNB-78, in the assay with XF498 and with DMS-273 was > 100 µM (inactive) in each case. Besides, the GI50 with M19-MEL was > 100 µM (inactive).
With `C#C[C@]1(O)CCCC2=CC(=O)CC[C@@]21C`, the GI50 in the assay on DLD-1, with DMS-114, in the assay on LXFL 529, in the assay with DMS-273, in the assay on M19-MEL and with HOP-18 was > 100 µM (inactive) throughout.
With `OC1CN(OC/C=C/c2ccccc2)CC(O)C1O` (stereo not drawn), the GI50 with DLD-1 was 87.3 µM (inactive); in the assay with DMS-114, > 100 µM (inactive); in the assay on LXFL 529, 60.1 µM (inactive); in the assay on SNB-78 it was > 100 µM (inactive); with XF498, > 100 µM (inactive); in the assay on DMS-273, > 100 µM (inactive). Further, the GI50 with M19-MEL and with HOP-18 was > 100 µM (inactive) in each case.
Turning to `NC(CCSCCF)C(=O)O` (stereo not drawn), the GI50 with DMS-114, in the assay on LXFL 529, in the assay on SNB-78, in the assay with DMS-273, in the assay on M19-MEL and in the assay on HOP-18 was > 100 µM (inactive) each time.
As to `COc1nc(OC)nc(Sc2ccc(Sc3ccc(Sc4nc(OC)nc(OC)n4)cc3)cc2)n1`, the GI50 with DLD-1 is > 100 µM (inactive); with DMS-114, 24.1 µM (inactive); in the assay on LXFL 529, > 100 µM (inactive); with SNB-78, > 100 µM (inactive); in the assay with XF498 it was > 100 µM (inactive); in the assay on DMS-273 it was > 100 µM (inactive). Also, the GI50 in the assay with M19-MEL and in the assay on HOP-18 was > 100 µM (inactive) throughout.
In the case of `C=C1C(=O)OC2C(C)C3C=CC(=O)[C@@]3(C)C(OC(=O)/C(C)=C/C)C1[C@@H]2OC(C)=O` (stereo partly drawn), the GI50 in the assay on DLD-1 is 0.5 µM (active); with DMS-114 it was 0.861 µM (active); with LXFL 529 it was 0.359 µM (active); in the assay on SNB-78, 0.396 µM (active); in the assay with XF498, 1.25 µM (inactive); with DMS-273, 0.541 µM (active). In addition, the GI50 in the assay on M19-MEL was 0.547 µM (active); in the assay with HOP-18, 1.79 µM (inactive).
